{"source": "patent US20240252472A1", "about": "“COMBINATIONS FOR TREATING CANCER” (Purdue Pharma L.P., priority 2023, published 2024)", "key": {"CD38 mRNA": {"system": "CD38 mRNA", "assay": "CD38 mRNA by RT-qPCR in MM cell lines", "format": "cell-based, human", "conditions": "MM1.S, JJN3, RPMI-8226; 1 and 2.5 μM, 36 hours", "experimental": "Real time quantitative PCR (RT-qPCR) Total RNA was isolated using the RNeasy Mini Kit (Qiagen, Hilden, Germany). Following reverse transcription, PCR was performed using TaqMan Gene Expression Assays (Applied Biosystems, Foster City, CA, USA): CD38 (Hs01120071_m1), MICA (Hs00741286_m1), MICB (Hs00792952_m1) and GAPDH (Hs99999905_m1). The results were expressed as fold change relative to expression of the target gene in control cells, using endogenous expression of GAPDH for normalization."}, "[1]": {"system": "subcutaneous plasmacytoma derived from MM.1S cells", "assay": "First subcutaneous plasmacytoma model, NSG mice with human NK cells", "format": "in vivo", "conditions": "EDO-S101 30 mg/kg i.v. weekly, daratumumab 8 mg/kg i.p. weekly, 4 weeks; vehicle 30 days", "experimental": "For the first subcutaneous human plasmacytoma model, NSG mice (Charles River Laboratories, Wilmington, MA, USA) were subcutaneously inoculated into the right flank with 3×10^6 MM1S in 100 μL RPMI 1640 medium and 100 μL of Matrigel (BD Biosciences). When tumors developed, mice were injected with human NK cells isolated from buffy coats from healthy donors and randomized (4 mice/group) to receive: EDO-S101 (30 mg/kg, iv weekly), daratumumab (8 mg/kg, ip weekly), a combination thereof, or vehicle (PBS vehicle solution with 15% HPBCD, 1.5% acetic acid, and 1.25% NaHCO3). Both, NK cells and the treatments were administered over four consecutive weeks. Caliper measurements of the tumor diameters were performed three times a week, and the tumor volume was estimated as the volume of a 3D ellipse using the following formula: V=4/3π×(a/2)×(b/2)^2, where “a” and “b” correspond to the longest and shortest diameter, respectively. Animals were killed when their tumors reached 2 cm. Differences in tumor volumes between control and treated groups were evaluated using one-way analysis of variance and Dunn's post-hoc tests. […]"}, "MOLP-8 cells": {"system": "MOLP-8 cells", "assay": "Daratumumab-mediated complement-dependent cytotoxicity (CDC) on pre-treated MM cells", "format": "cell-based", "conditions": "MOLP-8 pre-treated 2.5 μM 48 hours; daratumumab 0.1 or 1 μg/mL, 10% human serum, 4 hours", "experimental": "ADCC, CDC and apoptosis via cross-linking To assess the effect of tinostamustine pre-treatment on cytotoxic mechanisms mediated by daratumumab, MM cell lines were first incubated in presence of tinostamustine (2.5 μM) or DMSO for 48 hours. Cells were then washed to remove tinostamustine or DMSO from the culture medium, and the corresponding cytotoxic assay (ADCC, CDC or apoptosis via cross-linking) was performed.\nFor the evaluation of ADCC, tinostamustine or DMSO pre-treated cells were cocultured with NK cells obtained from healthy donors in the presence of daratumumab (1 μg/ml) or the corresponding isotype control for 4 hours (ratio 1:1). Briefly, peripheral blood mononuclear cells (PBMCs) were isolated from healthy donor buffy coats by Lymphoprep density gradient centrifugation. […] In all three assays, the cytotoxic effect on MM cells was evaluated by flow cytometry with Annexin V/7AAD staining after treatment with daratumumab. […]\nMM cells (MOLP-8 pre-treated with 0 or 2.5 μM EDO-S101 for 48 hours in accordance with the methods outlined above) were incubated with 0.1 μg/mL daratumumab, 1 μg/ml daratumumab, or the corresponding isotype control, for 30 minutes at 37° C. […] The percentage of dead cells was then evaluated by flow cytometry in accordance with the methods outlined above, using AnnexinV/7AAD staining."}, "MICA": {"system": "MICA", "assay": "MICA expression on MM patients' plasma cells ex vivo", "format": "cell-based, human", "conditions": "6 out of the 9 patients analyzed, 48 hours", "experimental": "For surface staining, cells were incubated with the appropriate antibodies and 7AAD (Immunostep) for 15 min in the dark. Data were acquired using a FACSCalibur cytometer (BD Biosciences) and analyzed using Infinicyt™ software (Cytognos). Specifically, the expression of CD38 or ligands for NK cell activating receptors (MICA, MICB, ULBP1-3, PVR and CD112) in MM cell lines was determined on the viable cell population (7AAD-). In primary myeloma cells, the expression of CD38 was analyzed over the viable myeloma population using the panel CD138-FITC/CD56-PE/7AAD/CD38-APC, whereas MICA/B-AF488/CD56-PE/7AAD/CD38-APC panel was used to determine MICA/B expression. Normalized median fluorescence intensity (MFI) was calculated by dividing median fluorescence obtained with the specific antibody by median fluorescence of the corresponding isotype control. MFI for each treatment was expressed as a percentage relative to the control (100%, cells cultured in media with DMSO)."}}, "data": [{"smiles": "Cn1c(CCCCCCC(=O)NO)nc2cc(N(CCCl)CCCl)ccc21", "note": "[EDO-S101, 7-(5-(bis(2-chloroethyl)amino)-1-methyl-1H-benzo[d]imidazol-2-yl)-N-hydroxyheptanamide]", "values": [{"measurement": "CD38 expression at the transcriptional level (qPCR)", "setting": "CD38 mRNA", "result": "increased"}, {"measurement": "median survival", "setting": "[1]", "result": 48, "unit": "days"}, {"measurement": "daratumumab mediated CDC", "setting": "MOLP-8 cells", "result": "enhanced"}, {"measurement": "expression of MICA in tinostamustine-treated vs DMSO-treated patient cells", "setting": "MICA", "result": "at least twice"}]}]}
